The values that follow come from PMC12156367, “Synthesis and Biological Evaluation of Seco-Coumarin/Furoxan Hybrids as Potent Anti-Tumor Agents to Overcome Multidrug Resistance via Multiple Mechanisms” (Molecules, 2025).

Structures are written as SMILES.

What all share (assay type): cell-based, human
For one assay, the system named is LC3 in MCF-7/ADR. The experiment in a line: LC3 immunofluorescence. The settings on record: 9e 10 nM, 24 hours. How it is done:
MCF-7/ADR (1 × 10^5 cells/dish) were seeded in confocal dishes and cultured overnight. After being treated with 9e (20 nM) for 24 h, cells were fixed with 4% paraformaldehyde (Servicebio, Wuhan, China) for 15 min at room temperature. Then, they were washed three times with PBS. Next, cells were blocked with a solution containing 3% BSA (Biofroxx, Einhausen, Germany) and 0.3% Triton X-100 (Beyotime, Shanghai, China) for 1 h at room temperature. The cells were incubated with the primary antibody, which was diluted in 3% BSA and 0.3% Triton X-100, overnight at 4 °C. After three washes with PBS, the cells were incubated with the fluorescent secondary antibody (Alexa Fluor 488 and Alexa Fluor 594, Bioss, Beijing, China) for 1 h at room temperature. Following another three washes with PBS, the cellular DNA was stained with Hoechst 33,342 dye (10 min, 37 °C).

The subject of the next assay is MCF-7/ADR. The experiment in a line: Antiproliferative activity of 9e after pre-treatment with inhibitors (MTT). How it is done:
Following harvest during logarithmic growth, cells were plated in 96-well culture plates at an initial density of 5000 cells per well. Incubate the plate overnight at 37 °C to allow the cells to adhere. Following the overnight incubation, introduce the compound at the predetermined concentration into each well, and then return the plate to the incubator for an additional 48 h culture period. After the 48 h treatment, carefully aspirate the drug-containing medium from each well. Subsequently, add 150 μL of 0.5 mg/mL MTT (Beyotime, China) solution to each well. Protect the plate from light and incubate it at 37 °C for 4 h to allow the formation of formazan crystals. Finally, add 150 μL of DMSO (Sinopharm, China) to each well and gently mix to ensure complete dissolution of the formazan crystals. The OD value at 570nm was measured using a microplate reader (Thermo Fisher, Waltham, MA, USA). Cell proliferation inhibition was determined using the following formula:Inhibition (%) = [(ODDMSO − ODcompd.)/(ODDMSO − ODblank)] × 100
Carboxy-PTIO (NO scavenger), NAC (N-acetylcysteine), tariquidar (P-glycoprotein inhibitor), and Fer-1 (ferrostatin-1, ferroptosis inhibitor) were purchased from Beyotime. MCF-7/ADR (5000 cells/well) were plated in 96-well plates and cultured overnight. Then, the cells were pre-treated with specified concentrations of inhibitors for 1 h and incubated with 9e (10 or 20 nM) or DMSO (24 h, 37 °C). Experimental procedures were the same as the method for the in vitro antiproliferative assay.

In another assay the test system is GPX4 in MCF-7/ADR. In words: Western blot of GPX4. The settings on record: after treatment of 9e. How it is done:
MCF-7/ADR (2 × 10^5 cells/well) were plated in 6-well plates. After 24 h treatment with 9e (20 nM), cell lysates were prepared using RIPA buffer (Beyotime, Shanghai, China; 30 min, ice), then centrifuged (12,000 rpm, 10 min, 4 °C) to harvest protein supernatants. Protein concentrations were measured by BCA assay (Beyotime, Shanghai, China). The supernatants were then loaded and transferred onto PVDF membranes (Millipore, Billerica, MA, USA) for western blot. The blots were developed with ECL chemiluminescent solution (Meilunbio, Dalian, China). Commercially purchased antibodies include P-gp (Abcam, Cambridge, UK; ab170904), Caspase 3 (Proteintech, Wuhan, China; 19677-1-AP), Bcl-2 (Servicebio, Wuhan, China; GB113375-100), LC3 (Abcam, Abcam, Cambridge, UK; ab192890), P62 (Cell Signaling Technology, Danvers, MA, USA; 5114 T), Beclin (ABclonal, Wuhan, China; A7353), GPX4 (ABclonal, Wuhan, China; A11243), LAMP1 (Cell Signaling Technology, Danvers, MA, USA;15,665 T), GAPDH (Servicebio, Wuhan, China; GB11002-100), and β-Actin (Servicebio, Wuhan, China;GB11001-100). The secondary antibodies conjugated with horseradish peroxidase (HRP) were from Abmart.
(In general: In western blotting, separated proteins are transferred to a membrane and probed.)

As to `COc1ccc(CCC(=O)c2ccc(OCCOc3no[n+]([O-])c3S(=O)(=O)c3ccccc3)cc2OC)cc1` [Compound 9e, 4-(2-(3-methoxy-4-(3-(4-methoxyphenyl)propanoyl)phenoxy)ethoxy)-3-(phenylsulfonyl)-1,2,5-oxadiazole 2-oxide], the “fluorescence intensity of LC3” value with LC3 in MCF-7/ADR is reported as “significantly increased”. Also, the “inhibitory activity after NAC pretreatment” value in the assay with MCF-7/ADR (10 nM 9e + 1250 μM NAC) is “completely lost its inhibitory activity”. The “cell survival rate with NO scavenger Carboxy-PTIO” value with MCF-7/ADR (20 nM 9e + 100 μM Carboxy-PTIO) is 53.7%. The “cells still inhibited with P-gp inhibitor tariquidar” value in the assay on MCF-7/ADR (9e + 5 μM tariquidar) is reported as 62%. Besides, the inhibition at 0.02 µM with MCF-7/ADR (Homo sapiens, NCI/ADR-RES, 9e 20 nM alone, read-out: proliferation inhibition rate) turned out to be 89%. In the assay with GPX4 in MCF-7/ADR, the “expression of GPX4” value is on record as “clearly decreased”.
